Experimental data published in ChEMBL document CHEMBL5608239, “Structure, Function, and Activity of Small Molecule and Peptide Inhibitors of Protein Arginine Methyltransferase 1” (J Med Chem, 2024).
pIC50: −log10 of the molar value. Numbered stars: 1 amine (or outer) side, 2 acyl side, 3 side chain; on linkers, the order of the positions; unused ones are H or OH. Square brackets hold non-standard residues; d marks the D form. Peptide text beside a SMILES is read from it. X1 = N=C(NCCC[C@H](N[*:1])C(=O)[*:2])NCCC[C@H]1O[C@@H](n2cnc3c(N)ncnc32)[C@H](O)[C@@H]1O

How the values were obtained:
[1] = target: T1, Protein arginine N-methyltransferase 1 (Homo sapiens, UniProt Q99873); test: Inhibition of human PRMT1 using [3H]methylated biotin-labeled peptide as substrate by scintillation proximity assay
[2] = target: T1, Protein arginine N-methyltransferase 1
[3] = target: T1, Protein arginine N-methyltransferase 1; test: Inhibition of PRMT1 (unknown origin) using Histone H4 as substrate incubated for 1 hr by fluorescence based analysis
[4] = target: T1, Protein arginine N-methyltransferase 1; test: Inhibition of 6His-tagged human recombinant PRMT1 using Histone H4 as substrate

T1 sequence (Q99873 whole entry): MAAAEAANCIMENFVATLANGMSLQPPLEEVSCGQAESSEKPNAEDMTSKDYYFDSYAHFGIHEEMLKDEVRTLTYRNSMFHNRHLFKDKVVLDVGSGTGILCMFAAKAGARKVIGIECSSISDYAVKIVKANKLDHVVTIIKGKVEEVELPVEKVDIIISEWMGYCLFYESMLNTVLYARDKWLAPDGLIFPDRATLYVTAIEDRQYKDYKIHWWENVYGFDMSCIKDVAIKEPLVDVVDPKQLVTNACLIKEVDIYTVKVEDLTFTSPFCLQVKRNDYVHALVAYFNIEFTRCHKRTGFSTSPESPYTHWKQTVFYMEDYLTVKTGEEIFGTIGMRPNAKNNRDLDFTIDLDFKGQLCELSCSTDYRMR

CC(=O)N[C@@H](CO)C(=O)NCC(=O)N[C@@H](CCCNC(=N)NCCC[C@H]1O[C@@H](n2cnc3c(N)ncnc32)[C@H](O)[C@@H]1O)C(=O)NCC(=O)N[C@@H](CCCCN)C(=O)NCC(=O)NCC(=O)N[C@@H](CCCCN)C(N)=O (Ac-SG[X1]GKGGK-NH2)
pIC50 [1]: 5.88

N=C(NCCCCC(N)C(N)=O)NCCCSC[C@H]1O[C@@H](n2cnc3c(N)ncnc32)[C@H](O)[C@@H]1O (some centres undefined)
pIC50 [2]: 5.52 | pIC50 [3]: 5.52

C[C@@H](O)[C@H](NC(=O)CNC(=O)CNC(=O)[C@H](CCCNC(=N)NCCC[C@H](N)C(=O)O)NC(=O)[C@H](CO)NC(=O)[C@@H](NC(=O)CNC(=O)CNC(=O)[C@@H](N)Cc1c[nH]c2ccccc12)[C@@H](C)O)C(=O)NCC(=O)NCC(=O)N[C@@H](Cc1c[nH]c2ccccc12)C(=O)O
pIC50 [4]: < 3.30
